pEC50, pKd: −log10 of the molar value.
Columns and labels:
[1] = target: T1, IRBIT bound to GST-EL (mouse IP3R1 amino acids 1-2217) (Mus musculus, UniProt P11881, N1264K); assay: Dissociation of IRBIT from GST-EL by eluants (pulldown, immunoblot quantification); assay type: binding
T1 construct: construct a GST-IP3R1 (1-2217) vector (termed GST-EL); made in house; host or cells: Sf9 cells (baculovirus) for GST-EL; IRBIT from mouse cerebellum tissue extract
Protocol: Bound proteins were pulled down with glutathione-Sepharose, and eluted with glutathione (Glu) (a) or 0.1 to 10 μM IP3 (a), IP2 (b), IP4 (c), IP6 (d), or ATP (e). IRBIT in the extract was analyzed with anti-IRBIT antibody and Alexa 680-conjugated secondary antibody (“a” (lower panel) and panels “b” to “e”). GST-EL in the glutathione and 0.1 to 10 μM IP3 eluate was analyzed with anti-GST antibody (a, upper panel). […] The relative intensity was plotted against the concentration of an eluant. Results are shown as the mean±standard deviation from at least three independent experiments.
For dissociation experiments, IRBIT in the diluted high salt extract was pulled down with GST-EL for precipitation and washed as described above. To resins, 100 μl of a wash buffer containing IP3, inositol 4,5-bisphosphate (IP2) (Dojindo), inositol 1,3,4,5-tetrakisphosphate (IP4) (Calbiochem), inositol 1,2,3,4,5,6-hexakisphosphate (IP6) (Calbiochem) or ATP (Amersham Pharmacia Biotech) (0.1, 0.3, 1, 3 or 10 μM) were added. After incubation on ice for 10 minutes, samples were centrifuged at 10,000 rpm for 1 minute, and the supernatant was subjected to immunoblot analysis with anti-IRBIT antibody or goat anti-GST antibody (Amersham Pharmacia Biotech). For quantification, Alexa 680-conjugated goat anti-rabbit IgG (Molecular Probes) was used as a secondary antibody. The fluorescence intensity of the immunoreactive bands of IRBIT was measured using the Odyssey infrared imaging system (Aloka). Quantitative data (the mean±SD from at least three independent experiments) is expressed as a percentage of the amount of IRBIT in 10 μM IP3 eluate.
IRBIT in the high salt extract from the mouse cerebellar crude microsome was trapped with GST-EL. Then elution was attempted with 0.1 to 10 μM IP3, and other inositolpolyphosphates, IP2, IP4, IP6 or ATP. […] It was confirmed that GST-EL was not detected (FIG. 8Aa, upper panel), even with longer exposure. […]

[2] = target: N-terminal region of IP3R1 (amino acids 1-604) (Mus musculus, UniProt P11881); details: cited from earlier work
Chain of N-terminal region of IP3R1 (amino acids 1-604) (P11881 1-604): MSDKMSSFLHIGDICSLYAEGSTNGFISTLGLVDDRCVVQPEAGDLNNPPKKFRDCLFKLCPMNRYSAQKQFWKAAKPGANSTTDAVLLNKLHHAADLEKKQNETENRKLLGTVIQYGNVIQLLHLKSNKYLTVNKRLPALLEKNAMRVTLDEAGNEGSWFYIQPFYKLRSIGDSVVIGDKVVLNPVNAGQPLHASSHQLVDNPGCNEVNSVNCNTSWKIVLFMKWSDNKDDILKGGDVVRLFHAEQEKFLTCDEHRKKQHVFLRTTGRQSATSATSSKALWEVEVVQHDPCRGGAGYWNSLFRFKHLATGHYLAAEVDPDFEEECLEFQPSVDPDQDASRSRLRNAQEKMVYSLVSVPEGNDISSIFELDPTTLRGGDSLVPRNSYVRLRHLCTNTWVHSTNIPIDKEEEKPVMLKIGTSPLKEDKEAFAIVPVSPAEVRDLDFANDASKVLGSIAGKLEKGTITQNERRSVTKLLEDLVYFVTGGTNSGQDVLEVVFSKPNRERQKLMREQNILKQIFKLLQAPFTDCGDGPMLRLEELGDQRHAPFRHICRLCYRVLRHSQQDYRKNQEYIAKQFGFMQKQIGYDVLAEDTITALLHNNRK

[3] = target: T2, GST-EL (mouse IP3R1 amino acids 1-2217) (Mus musculus, UniProt P11881, N1264K); assay: GST pulldown with GST-EL; assay type: binding; details: GFP fusion proteins in Cos-7 cell lysates
T2 construct: construct a GST-IP3R1 (1-2217) vector (termed GST-EL); made in house; host or cells: Sf9 cells (baculovirus)
T2 sequence (P11881 1-2217 N1264K): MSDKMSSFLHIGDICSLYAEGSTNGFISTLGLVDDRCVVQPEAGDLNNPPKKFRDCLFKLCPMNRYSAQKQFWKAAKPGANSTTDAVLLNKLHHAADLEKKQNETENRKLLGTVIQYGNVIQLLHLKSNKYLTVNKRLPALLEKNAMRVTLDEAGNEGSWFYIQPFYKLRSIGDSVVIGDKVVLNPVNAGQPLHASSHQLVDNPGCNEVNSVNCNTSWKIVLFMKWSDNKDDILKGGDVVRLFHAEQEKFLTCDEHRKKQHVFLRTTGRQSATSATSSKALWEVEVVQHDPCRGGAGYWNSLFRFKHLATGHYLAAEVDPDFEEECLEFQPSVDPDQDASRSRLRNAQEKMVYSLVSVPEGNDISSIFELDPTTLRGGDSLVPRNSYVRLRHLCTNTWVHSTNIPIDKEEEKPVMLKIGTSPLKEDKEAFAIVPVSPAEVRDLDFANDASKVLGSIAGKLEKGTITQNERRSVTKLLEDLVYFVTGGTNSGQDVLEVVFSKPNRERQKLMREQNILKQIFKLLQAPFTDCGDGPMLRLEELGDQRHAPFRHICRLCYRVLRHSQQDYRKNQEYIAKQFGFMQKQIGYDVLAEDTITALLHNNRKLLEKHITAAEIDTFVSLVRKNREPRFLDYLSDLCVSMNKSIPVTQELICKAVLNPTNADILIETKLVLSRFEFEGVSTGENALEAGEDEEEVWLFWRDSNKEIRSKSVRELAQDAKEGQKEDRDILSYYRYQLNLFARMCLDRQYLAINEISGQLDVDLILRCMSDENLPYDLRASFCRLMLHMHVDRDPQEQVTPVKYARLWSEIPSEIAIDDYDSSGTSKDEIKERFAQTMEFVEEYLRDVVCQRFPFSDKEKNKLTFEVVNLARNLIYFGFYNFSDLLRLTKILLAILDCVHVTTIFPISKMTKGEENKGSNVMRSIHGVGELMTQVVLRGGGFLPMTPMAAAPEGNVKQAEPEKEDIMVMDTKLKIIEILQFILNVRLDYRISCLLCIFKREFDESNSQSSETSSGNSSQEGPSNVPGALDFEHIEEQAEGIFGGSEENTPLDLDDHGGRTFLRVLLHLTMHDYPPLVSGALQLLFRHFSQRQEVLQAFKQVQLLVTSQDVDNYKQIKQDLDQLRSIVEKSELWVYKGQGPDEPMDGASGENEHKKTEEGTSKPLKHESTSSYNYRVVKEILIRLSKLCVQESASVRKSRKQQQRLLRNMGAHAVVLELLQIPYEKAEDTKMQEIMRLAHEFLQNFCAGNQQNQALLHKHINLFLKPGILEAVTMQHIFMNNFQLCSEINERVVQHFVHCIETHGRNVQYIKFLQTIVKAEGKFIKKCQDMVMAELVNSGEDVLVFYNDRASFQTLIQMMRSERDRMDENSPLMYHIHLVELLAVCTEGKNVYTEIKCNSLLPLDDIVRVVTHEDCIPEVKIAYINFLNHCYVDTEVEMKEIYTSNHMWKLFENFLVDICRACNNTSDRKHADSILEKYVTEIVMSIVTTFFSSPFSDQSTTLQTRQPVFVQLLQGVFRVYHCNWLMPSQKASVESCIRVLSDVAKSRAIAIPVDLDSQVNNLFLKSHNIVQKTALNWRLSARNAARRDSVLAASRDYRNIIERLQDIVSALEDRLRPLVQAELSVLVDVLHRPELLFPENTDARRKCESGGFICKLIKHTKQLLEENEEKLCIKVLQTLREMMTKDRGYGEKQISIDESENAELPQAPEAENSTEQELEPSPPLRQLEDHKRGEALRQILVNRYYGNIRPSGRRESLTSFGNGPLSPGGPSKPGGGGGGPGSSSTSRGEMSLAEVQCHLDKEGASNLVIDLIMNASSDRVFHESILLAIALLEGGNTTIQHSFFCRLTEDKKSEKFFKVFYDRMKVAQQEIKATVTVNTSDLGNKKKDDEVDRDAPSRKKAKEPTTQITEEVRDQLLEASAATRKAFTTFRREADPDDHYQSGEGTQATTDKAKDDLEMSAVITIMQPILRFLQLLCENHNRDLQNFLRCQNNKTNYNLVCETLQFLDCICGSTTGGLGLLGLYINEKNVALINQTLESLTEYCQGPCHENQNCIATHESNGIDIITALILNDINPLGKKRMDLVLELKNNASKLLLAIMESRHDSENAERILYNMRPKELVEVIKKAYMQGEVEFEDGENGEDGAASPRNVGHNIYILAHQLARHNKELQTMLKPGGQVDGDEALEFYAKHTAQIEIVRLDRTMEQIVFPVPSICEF
Protocol: Mouse cerebellar cytosolic fraction was diluted 2-fold with 10 mM Hepes (pH 7.4), 200 mM NaCl, 2 mM EDTA, 1 mM 2-ME and 0.02% Triton X-100. The high salt extract was diluted 5-fold with 10 mM Hepes (pH 7.4), 2 mM EDTA, 1 mM 2-ME and 0.01% Triton X-100. The diluted fractions (the final NaCl concentration of both fractions was 100 mM) were incubated with 20 μg of GST-EL or GST for 2 hours at 4° C. After adding 10 μl of glutathione-Sepharose and another 2 hours of incubation, the resins were washed 5 times with a wash buffer (10 mM Hepes (pH 7.4), 100 mM NaCl, 2 mM EDTA, 1 mM 2-ME, and 0.01% Triton X-100), and bound proteins were eluted with 20 mM glutathione.
The eluted proteins were analyzed by Western blotting with anti-IRBIT antibody. For dephosphorylation, the diluted high salt extract was incubated in the presence of or the absence of Escherichia coli alkaline phosphatase (Toyobo) with 2 mM MgCl2 for 30 minutes at 37° C. 5 mM EDTA was added, and then the resultant was subjected to pulldown assay as described above.
For the determination of the IP3R1-interacting region of IRBIT, Cos-7 cells expressing GFP-tagged full-length IRBIT or its truncated mutants were lysed in a lysis buffer (10 mM Hepes (pH7.4), 100 mM NaCl, 2 mM EDTA, 1 mM 2-ME, 0.5% Nonidet P-40, and protease inhibitor) for 30 minutes at 4° C., followed by centrifugation (100,000×g, 30 minutes). The supernatants were subjected to pulldown assay with GST-EL or GST as described above, and bound proteins were subjected to immunoblot analysis with anti-GFP antibody (Medical & Biological Laboratories).

T1 sequence (P11881 1-2217 N1264K): as above

Nc1ncnc2c1ncn2[C@@H]1O[C@H](COP(=O)(O)OP(=O)(O)OP(=O)(O)O)[C@@H](O)[C@H]1O [ATP]
dissociation of IRBIT from GST-EL ([1]; 10 μM eluant): did not dissociate

O=P(O)(O)O[C@@H]1[C@H](O)[C@H](O)[C@@H](OP(=O)(O)O)[C@H](OP(=O)(O)O)[C@H]1O [IP3, inositol 1,4,5-trisphosphate]
affinity lower than the Kd value determined by a conventional assay ([2]; pH 7.4 and 150 mM NaCl versus conventional assay): approximately 7.5 fold
pKd ([2]; physiological conditions (pH 7.4 and 150 mM NaCl), read-out: Kd of IP3 binding): 6.47
pEC50 ([1]; pH 7.4 and 100 mM NaCl, IRBIT from mouse cerebellar high salt extract, read-out: EC50 (IP3 concentration required for half (50%)-maximal dissociation of IRBIT from GST-EL)): ~6.30
dissociation efficiency relative to other inositol polyphosphates ([1]; versus IP2, IP4, IP6): approximately 50 times

GFP-IRBIT (1 to 277): GFP-tagged deletion mutant of IRBIT, amino acids 1-277
interaction with GST-EL [3]: bound to GST-EL efficiently

GFP-IRBIT (1-104): GFP-tagged deletion mutant of IRBIT, amino acids 1-104 (N-terminal region)
interaction with GST-EL [3]: much weaker

GFP-IRBIT (105-530): GFP-tagged deletion mutant of IRBIT, amino acids 105-530, lacking the N-terminal region
interaction with GST-EL [3]: did not interact with GST-EL

GFP-IRBIT: GFP-tagged full-length IRBIT expressed in Cos-7 cells
interaction with GST-EL [3]: bound to GST-EL efficiently

— patent US20050181450A1, “Novel inositol 1,4,5-trisphosphate (IP3) receptor-binding protein and an IP3 indicator” (priority 2002, published 2005)
